Patent US10669270B2, “Amide-sulfamide derivatives, compositions, and uses related to CXCR4 inhibition” (Emory University, priority 2016, dated 2020)
“Also recorded” adds a separate entry of the source.

Experiments:
[1] = test system: xylene-induced ear edema; assay: Xylene-induced ear inflammation suppression test; format: in vivo, mice; conditions: for inflammation suppression (mouse ear edema): 10 mg/kg i.p., 30 minutes after xylene, sacrificed 2 hours later; for histological analysis of ear: ear damage, edema, inflammatory cells
Protocol: Five mice per group were used to determine the effect of the CXCR4 modulators. The inner and outer surfaces of the right ear of each mouse were treated with a total 30 μL of xylene for the induction of ear edema, whereas the left ear was treated with 30 μL of saline, which was used as a non-inflammation control. The selected compounds were dissolved in 10% DMSO and 90% of 45% (2-hydroxypropyl)-β-cyclodextrin (CD) in PBS. Thirty minutes after the application of xylene, 14 selected compounds were administered intraperitoneally (i.p.) at 10 mg/kg. Control animals received corresponding i.p. injections of the vehicle. The animals were sacrificed 2 hours later, and two ear plugs (7 mm in diameter) were removed from both the treated ear and the untreated ear. Weights of treated and untreated ear plugs were measured. The difference in weight of the two ear plugs was taken as a measure of edematous response. The inflammation-suppression percentage was calculated by comparing the drug-treated group to the control group.

[2] = test system: CXCR4/CXCL12-mediated Akt phosphorylation; assay: Western blot analysis of Akt phosphorylation; format: cell-based
Protocol: Forty micrograms of protein were separated by SDS-PAGE and transferred to a PVDF membrane (Bio-Rad, Hercules, Calif., USA). The membrane was blocked for 30 min in a blocking solution (5% milk in Trisbuffered saline containing 0.1% Tween-20) and incubated overnight at 4° C. using monoclonal rabbit anti-phospho-Akt (Ser473) antibody (Cat No., 9271) and monoclonal rabbit anti-Akt (pan) antibody (cat No., 4691) at 1:500 in blocking solution. All antibodies were purchased from Cell Signaling Technology (Danvers, USA). The membrane was incubated for 1 hour with goat anti-rabbit IgG (H+L)-HRP conjugated secondary antibody at 1:10000 (Cat No. 1706515; Bio-rad, Hercules, USA) after washing. Enzyme-linked chemiluminescence was performed to detect hybridized protein bands.

[3] = test system: bacterial-infected J774A.1 macrophages; assay: TNF-α secretion by bacterial-infected macrophages; format: cell-based
[4] = test system: MDA-MB-231 cells; assay: Matrigel invasion assay; format: cell-based; conditions: compounds 100 nM; CXCL12α 200 ng/mL; 22 hours
Protocol: Matrigel invasion assay was performed by using a Matrigel invasion chamber from Corning Biocoat (Bedford, Mass.). CXCL12α(200 ng/mL; R & D Systems, Minneapolis, Minn.) was added to the bottom chamber to induce the invasion of MDA-MB-231 cells through the Matrigel. The selected compounds (100 nM) or AMD3100 were added to the cells before the cells were seeded in the top chamber. The Matrigel invasion chamber was incubated for 22 hours in a humidified cell culture incubator. First, non-invading cells were removed from the top of the Matrigel with a cotton-tipped swab. Invading cells on the filter at the bottom of the Matrigel were fixed in methanol and stained with hematoxylin and eosin (H & E). The percent of invasion was determined by counting the H&E stained cellc.

[5] = test system: MDA-MB-231 cells; assay: Cytotoxicity screening, MDA-MB-231; format: cell-based; conditions: at 10 μM
[6] = test system: MCF-10A cells; assay: Cytotoxicity screening, MCF-10A; format: cell-based; conditions: at 10 μM
[7] = Preliminary pharmacokinetic study (plasma stability); format: in vitro ADME
[8] = molecular target: T1, CXCR4 (Homo sapiens, UniProt P61073); assay: Primary binding affinity screening (competition with biotinylated TN14003 on MDA-MB-231 cells); conditions: for potency compared with AMD3100: EC relative to AMD3100; for EC: MDA-MB-231 cells, compounds at 1, 10, 100, or 1000 nM, biotinylated TN14003
T1 construct: endogenous in cells; host or cells: MDA-MB-231
T1 sequence (P61073 whole entry): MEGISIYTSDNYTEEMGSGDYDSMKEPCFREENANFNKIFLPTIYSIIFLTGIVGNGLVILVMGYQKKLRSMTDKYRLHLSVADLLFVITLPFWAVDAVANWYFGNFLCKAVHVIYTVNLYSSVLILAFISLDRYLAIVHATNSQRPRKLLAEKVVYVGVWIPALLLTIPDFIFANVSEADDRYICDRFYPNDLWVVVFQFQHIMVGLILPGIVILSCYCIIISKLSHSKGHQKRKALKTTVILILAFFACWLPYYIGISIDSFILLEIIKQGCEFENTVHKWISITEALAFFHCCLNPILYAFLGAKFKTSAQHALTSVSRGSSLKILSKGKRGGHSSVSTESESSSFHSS
Protocol: For binding affinity assay, 2×10^4 MDA-MB-231 cells in 300 μL of cell culture medium were seeded in an 8-well slide chamber 2 days before the experiments were conducted. Various concentrations of different compounds (1, 10, 100, or 1000 nM) were added to the separate wells and incubated for 10 minutes at room temperature, and then the cells were fixed in 4% ice-cold paraformaldehyde. The cells were rehydrated in phosphate-buffered saline (PBS). The slides were subsequently incubated for 30 minutes at room temperature with 0.05 μg/mL biotinylated TN14003, washed three times with PBS, and incubated in streptavidin-rhodamine (1:150 dilution; Jackson ImmunoResearch Laboratories, West Grove, Pa.) for 30 minutes at room temperature. Finally, the slides were washed with PBS and mounted in an anti-fade mounting solution (Molecular Probes, Eugene, Oreg.), and the samples were analyzed on a Nikon Eclipse E800 microscope.

| Structure (SMILES) | inflammation suppression (mouse ear edema) [1] | histological analysis of ear [1] | Matrigel invasion inhibition compared with AMD3100 [4] | melting point | other results |
| --- | --- | --- | --- | --- | --- |
| O=C(NCc1ccc(CNS(=O)(=O)c2ccc(F)cc2F)cc1)c1cncnc1 [Ig, N-(4-((2,4-difluorophenylsulfonamido)methyl)benzyl)pyrimidine-5-carboxamide] | 56% | significantly attenuated the ear damage and decreased the number of inflammatory cells | better activity than AMD3100 |  | CXCR4/CXCL12-mediated phosphorylation of Akt [2]: blocked the phosphorylation of Akt; also recorded: blocked the CXCR4/CXCL12-mediated Akt phosphorylation in a dose-dependent manner; TNF-α secretion ([3]; result in words): significantly suppressed |
| Cc1ccc(S(=O)(=O)NCc2ccc(CNC(=O)c3ccc(F)cc3)cc2)cc1 [IIj, 4-Fluoro-N-(4-((4-methylphenylsulfonamido)methyl)benzyl)benzamide] | 75% | attenuated ear edema and damage substantially |  | 187 to 189 °C | inhibition of proliferation (cytotoxicity) [5]: did not inhibit the proliferation; inhibition of proliferation (cytotoxicity) [6]: did not inhibit the proliferation; CXCR4/CXCL12-mediated phosphorylation of Akt [2]: blocked the CXCR4/CXCL12-mediated phosphorylation of Akt in a dose-dependent manner; attenuation of the amount of TNF-α [3]: 59%; plasma stability [7]: favourable plasma stability |
| O=C(NCc1ccc(CNS(=O)(=O)c2ccc3c(c2)CCO3)cc1)c1scc2c1OCCO2 [Ik] |  |  | better activity than AMD3100 |  |  |
| O=C(NCc1ccc(CNS(=O)(=O)c2ccc3c(c2)CCO3)cc1)c1cccnc1 [Ia, N-(4-((2,3-dihydrobenzofuran-5-sulfonamido)methyl)benzyl)nicotinamide] |  |  | better activity than AMD3100 | 137 to 139 °C |  |
| Cc1nnsc1C(=O)NCc1ccc(CNS(=O)(=O)c2ccc(F)c(F)c2)cc1 [Im, N-(4-((3,4-difluorophenylsulfonamido)methyl)benzyl)-4-methyl-1,2,3-thiadiazole-5-carboxamide] | 54% | significantly attenuated the ear damage and decreased the number of inflammatory cells | comparable inhibition to the reference drug AMD3100 |  |  |
| Cc1ccccc1C(=O)NCc1ccc(CNS(=O)(=O)c2ccccc2)cc1 [IIIb, 2-Methyl-N-(4-(phenylsulfonamidomethyl)benzyl)benzamide] |  |  |  | 129 to 131 °C | potency compared with AMD3100 [8]: 1000 fold; EC [8]: 1 nM |
| Cc1cc(C(=O)NCc2ccc(CNS(=O)(=O)c3ccc4c(c3)CCO4)cc2)n(C)n1 [If, N-(4-((2,3-dihydrobenzofuran-5-sulfonamido)methyl)benzyl)-1,3-dimethyl-1H-pyrazole-5-carboxamide] |  |  | comparable inhibition to the reference drug AMD3100 | 176 to 178 °C |  |
| O=C(NCc1ccc(CNS(=O)(=O)c2ccccc2)cc1)c1ccccc1 [IIIa, N-(4-(phenylsulfonamidomethyl)benzyl)benzamide] | 62% |  |  | 139 to 141 °C | potency compared with AMD3100 [8]: 1000 fold; EC [8]: 1 nM |
